Data from US20110250292A1, “COMPOSITION FOR IMPROVING RA[…] CANCER” (CHONJISAN CO., LTD., priority 2008, published 2011).

Columns and labels:
[1] = oral dosage form; Z. X. Shen et al., Blood 89 (1997); cited from earlier work
[2] = test system: Meth-A tumor (WEHI164 fibrosarcoma); assay: Irradiation and tetra-arsenic oxide treatment on Balb/c mouse having Meth-A tumor (tumor volume); type: in vivo; conditions: 8 mg/kg once into abdominal cavity 1 hour after single local irradiation; 6 mice; FIG. 1; *p<0.05
Protocol: (§1) Balb/c, and Balb/c, nu/nu female mice (weight: 20 to 25 g, age: 6 to 8 weeks) were obtained from Orient bio (Taejun, Korea), and WEHI164 tumor cell line (derived from Meth-A-induced fibrosarcoma) and FaDu tumor cell line (derived from human nasopharyngeal squamous cell carcinoma) were bought from KCCB (Seoul, Korea). WEHI164 cells (5×10^5) or FaDu cells (1×10^6) in MEM 50 μl were hypodermically injected into a rear leg of a Balb/c or Balb/c nu/nu mouse, and then the growth of a tumor was observed.
(§2) Tetra-arsenic oxide obtained from Genew Science (Seoul, Korea) was placed in distilled water, and continuously stilled and dissolved. The resultant liquid was stored as a stock liquid at 4° C. The stock liquid was diluted with a phosphoric acid buffer solution in such a manner as to have a final concentration of 0.5 mg/ml.
In order to minimize acute arsenic toxicity, dextrose was added with a final concentration of 5% (F. X. Reichl, H. Kreppel, L. Szinicz, B. Fichtl, and W. Forth, Reduction of arsenic trioxide toxicity in mice by repeated treatment with glucose. Arch Toxicol Suppl 14 (1991) 225-7).
In irradiation, a cobalt-60 unit (Theratron 780; AECL, Kanata, Ontarino, Canada) was used. […]
A change in the tumor size was measured by calipers twice to three times per week. A tumor volume was calculated by a×b×h/2 (a=minimum length, b=maximum length, h=height). […]

[3] = test system: human nasopharyngeal squamous cell carcinoma (FaDu); assay: Fractional irradiation and tetra-arsenic oxide treatment on Balb/c nu/nu mouse having human nasopharyngeal squamous cell carcinoma (tumor volume); type: in vivo; conditions: 8 mg/kg through abdominal cavity; fractional irradiation 12 Gy 4 times per week for 4 weeks; FIG. 3
Protocol: as §1, §2
(§3) In order to minimize acute arsenic toxicity, dextrose was added with a final concentration of 5% (F. X. Reichl, H. Kreppel, L. Szinicz, B. Fichtl, and W. Forth, Reduction of arsenic trioxide toxicity in mice by repeated treatment with glucose. Arch Toxicol Suppl 14 (1991) 225-7). […]
(§4) A tumor volume was measured twice to three times per week. The tumor size was measured by calipers, and the tumor volume was calculated by a×b×h/2 (a=minimum length, b=maximum length, h=height). […]

[4] = test system: human nasopharyngeal squamous cell carcinoma (FaDu); assay: Single irradiation and tetra-arsenic oxide treatment on Balb/c nu/nu mouse having human nasopharyngeal squamous cell carcinoma (tumor volume); type: in vivo; conditions: FIGS. 2 and 3
Protocol: as §1, §2, §3, §4

[5] = M. J. Park et al., Int. J. Oncol. 22, 2003; cited from earlier work

| Molecule | gastrointestinal toxicity on oral administration [1] | growth of tumor (tumor volume), combination with irradiation compared to irradiation alone [2] | radiosensitizer effect on tumor volume with fractional irradiation [3] | tumor growth inhibition, separate treatment of tetra-arsenic oxide compared to control group ([4]; 8 mg/kg once through abdominal cavity, no irradiation) | tumor growth, combination with irradiation compared to irradiation alone ([4]; 8 mg/kg through abdominal cavity plus local irradiation) | toxicity on oral administration [5] |
| --- | --- | --- | --- | --- | --- | --- |
| arsenic trioxide | serious gastrointestinal toxicity |  |  |  |  |  |
| O1[As]2O[As]3O[As]1O[As](O2)O3 [tetra-arsenic oxide, 2,4,6,8,9,10-Hexaoxa-1,3,5,7-tetraarsatricyclo [3.3.1.1^3,7]decane] |  | significantly reduced the growth of tumor | significant effect as a radiosensitizer | hardly has an effect on tumor growth inhibition | significantly reducing tumor growth | very low toxicity |
